Laboratory results reported in ChEMBL document CHEMBL1212829, “Efficient synthesis of Hsp90 inhibitor dimers as potential antitumor agents” (Bioorg Med Chem, 2010).

Assays:
[1] = target: Heat shock protein HSP90 (Homo sapiens, UniProt P07900+P08238); test: Inhibition of Hsp90 in human SKBR3 cells assessed as Her2 degradation after 24 hrs by Western blotting; assay type: cell-based; settings: sk-br-3
[2] = target: Heat shock protein HSP 90-alpha (Homo sapiens, UniProt P07900); test: Displacement of biotin-labeled geldanamycin from N-terminal His-tagged human recombinant HSP90alpha expressed in Escherichia coli
[3] = tested on: SK-BR-3; test: Cytotoxicity against human SKBR3 cells after 72 hrs by crystal violet assay; assay type: functional, cell-based; settings: SK-BR-3, 72 h

Structure (SMILES) | IC50 [1] | IC50 [2] | IC50 [3]
Nc1ncnc2c1nc(Sc1cc3c(cc1Br)OCO3)n2CCCc1cn(CCCO)nn1 | 3900 nM | 490 nM | 1800 nM
Nc1ncnc2c1nc(Sc1cc3c(cc1Br)OCO3)n2CCCc1cn(CCOCCOCCOCCOCCOCCn2cc(CCCn3c(Sc4cc5c(cc4Br)OCO5)nc4c(N)ncnc43)nn2)nn1 | 6300 nM | 650 nM | 3800 nM
Nc1ncnc2c1nc(Sc1cc3c(cc1Br)OCO3)n2CCCCc1cn(CCCO)nn1 | 2900 nM | 510 nM | 1400 nM
Nc1ncnc2c1nc(Sc1cc3c(cc1Br)OCO3)n2CCCc1cn(CCOCCOCCOCCOCCOCCOCCn2cc(CCCn3c(Sc4cc5c(cc4Br)OCO5)nc4c(N)ncnc43)nn2)nn1 | 7100 nM | 790 nM | 5600 nM
C#CCCCn1c(Sc2cc3c(cc2Br)OCO3)nc2c(N)ncnc21 | 460 nM | 300 nM | 330 nM
Nc1ncnc2c1nc(Sc1cc3c(cc1Br)OCO3)n2CCCCc1cn(CCOCCOCCOCCOCCOCCn2cc(CCCCn3c(Sc4cc5c(cc4Br)OCO5)nc4c(N)ncnc43)nn2)nn1 | 5200 nM | 5100 nM | 3000 nM
C#CCCCCn1c(Sc2cc3c(cc2Br)OCO3)nc2c(N)ncnc21 | 2600 nM | 1400 nM | 1400 nM

The next lines start with results.

IC50 [1] | IC50 [2] | Structure (SMILES) | IC50 [3]
9200 nM | 1100 nM | Nc1ncnc2c1nc(Sc1cc3c(cc1Br)OCO3)n2CCCc1cn(CCOCCOCCOCCOCCOCCOCCOCCn2cc(CCCn3c(Sc4cc5c(cc4Br)OCO5)nc4c(N)ncnc43)nn2)nn1 | 4800 nM
4700 nM | 3400 nM | Nc1ncnc2c1nc(Sc1cc3c(cc1Br)OCO3)n2CCCCc1cn(CCOCCOCCOCCOCCOCCOCCn2cc(CCCCn3c(Sc4cc5c(cc4Br)OCO5)nc4c(N)ncnc43)nn2)nn1 | 5000 nM
4200 nM | 3100 nM | Nc1ncnc2c1nc(Sc1cc3c(cc1Br)OCO3)n2CCCCc1cn(CCOCCOCCOCCOCCOCCOCCOCCn2cc(CCCCn3c(Sc4cc5c(cc4Br)OCO5)nc4c(N)ncnc43)nn2)nn1 | 4800 nM
